Non-standard residues stand in square brackets, D forms with d. No end group written: not given here. Chg = N[C@H](C(=O)O)C1CCCCC1; Nphe = O=C(O)CNCc1ccccc1; Ava = NCCCCC(=O)O
Assays:
[1] = system: TLR4 with MD2 or CD14 co-receptor; assay: Reporter gene (SEAP) PAMP assay in NIH3T3 cells expressing TLR4 with MD2 or CD14 co-receptor; type: cell-based; design: key to PAMP assay (NIH3T3 cells) Induction with compound alone / PAMP assay (NIH3T3 cells) Induction with compound + LPS: 0: no effect of the compound alone/no effect of the compound in addition to LPS alone; +: small effect of the compound alone/small effect of the compound in addition to LPS alone; ++: intermediate effect of the comp. alone/intermediate effect of the comp. in add. to LPS alone; +++: strong effect of the compound alone/strong effect of the compound in addition to LPS alone; conditions: for Co-Receptor/s: co-receptor (MD2/CD14) via which the effect occurs; for Co-Receptor/s / Activity: summary of FIGS. 6A-6V; for Activity: type of effect (activation/inhibition) on TLR4
Excerpt: FIGS. 6A-6V show the dose response inhibitor/activator effects of the designed peptides using a reporter gene assay. The reporter gene assay is composed of NIH3T3 cells transfected with either MD2 or CD14 along with TLR4 and the NF-κB-inducible reporter gene Secreted Alkaline Phosphatase (SEAP) to monitor TLR4 activation (Burger-[…] al. 2010, A new cell-based innate immune receptor assay for the examination of receptor activity, ligand specificity, signaling pathways and the detection of pyrogens. […] The receptors are coupled to for the detection of inhibitory activity, cells were treated with the peptide prior to exposure to LPS and the response to LPS is measured at variable peptide doses (as labeled). The detection of cell activation was performed using the peptide alone, at variable doses, as indicated in the respective graphs. The following presents in more details the experimental procedures. Experimental setup: The cell-based Assay is performed with different NIH3T3 reporter cell lines (NIH 3T3 PRR SEAP-TLR4/CD14 or -TLR4/MD2) and the control cell line NIH 3T3 SEAP. The NIH3T3 SEAP cell line is used in order to determine the background of the alkaline phosphatase expression. It is a cell line stably transfected with only the reporter gene plasmid. For each assay a vial of the master cell bank is revitalized and seeded in a standard cell culture flask (75 cm^2 T-Flask) at day one. Cells are cultured in 20 ml culture media (DMEM supplemented with 10% FCS (heat inactivated), 50 units/ ml penicillin, 0.05 mg/ ml streptomycin and 2 mmol/ L L-glutamine). The cells are cultured at 37° C. in a 5% CO2 humidified atmosphere. At Day 1: For the PAMP Assay cells are seeded in a 96-well plate at a density of 0.3.10^5 cells/well in a final volume of 100 μl culture media (DMEM, 10% FCS (heat inactivated)). To ensure equal culture conditions the 96-well cell culture plates are placed side by side and cultivated in a humidified CO2 incubator (37° C. and 5% CO2). […] After a cultivation period of 24 h the media is removed and replaced with the respective volume of fresh media (DMEM, 0.5% FCS (heat inactivated)).The lyophilized peptides are stored in a freezer at -20° C. upon arrival. For the experiments they are dissolved in DMSO (to the highest possible concentration). Before opening the peptides are allowed to equilibrate to room temperature (in order to reduce the uptake of moisture). For each experiment the stock solution is diluted in DMEM to the appropriate working concentration. […] Sonication was also used to help dissolve the peptides. Immediately after replacing the media, the diluted peptides are applied in a serial dilution to the cells and directly after that the agonist is added to the cells. After adding peptide and […] the final volume in each well of a 96 well plate amounts 100 μl/well. The culture medium containing 0.5% FCS is used as a negative reference item. The induction is performed for 18 h at 37° C. and 5% CO2. At Day 3: To determine the final SEAP value, 50 μl of the supernatant is carefully transferred in a new 96-well plate (Greiner-F-plate) and 50 μl of the substrate (pNPP; p-nitrophenyl phosphate) is added. SEAP catalyzes the hydrolysis of pNPP to the final product para-nitrophenol (yellow) which can be detected by a photometric analysis using an UV-VIS reader at 405 nm. […] The results of FIGS. 6A-6V with respect to peptide activity are summarized in Table 1 above with respect to the type of effect of the respective peptide (activation/inhibition) and with respect to the corresponding co-receptor (MD2/CD14). Data concerning SEQ ID No. 22 with respect to co-receptor CD14 is in preparation.

whole human blood = assay: IL-1β ELISA after 24-hour incubation with whole human blood; type: cell-based; design: key: 0: no effect of the compound alone/no effect of the compound in addition to LPS alone; +: small effect of the compound alone/small effect of the compound in addition to LPS alone; ++: intermediate effect of the comp. alone/intermediate effect of the comp. in add. to LPS alone; +++: strong effect of the compound alone/strong effect of the compound in addition to LPS alone; conditions: for IL-1β ELISA after blood activation Induction with compound + LPS: LPS 100 pg/ml
Procedure: One attribute of TLR-4 activation is the release of the pro-inflammatory cytokine Interleukin-1β (IL1β). Several of our discovered peptides were tested for IL1β induction by ELISA following a 24-hour incubation with whole human blood. IL1β induction was measured with increasing dosage of the peptides alone, or with a fixed dosage of LPS (100 pg/ml).

Substance | Co-Receptor/s [1] | PAMP assay (NIH3T3 cells) Induction with compound + LPS [1] | PAMP assay (NIH3T3 cells) Induction with compound alone [1] | Activity [1] | IL-1β ELISA after blood activation Induction with compound + LPS (whole human blood) | IL-1β ELISA after blood activation Induction with compound alone (whole human blood)
1(N′) Ava-OH-2Leu-3Tyr-4Met-5Ser-6Leu-7Lys-8Trp-9Met (C′) ([Ava]LYMSLKWM; also: Ava-OH) [SEQ ID No. 4 (M1)] | MD2/CD14 | ++ | ++ | Activator | +++ | +
(N′) 1(S)Glu-2(S)Trp-3Gly-4(S)Trp-5(S)Arg-6(S)Met-7(R,S)Ile-8Bzl(Gly) (C′) (EWGWRMI[Nphe]; also: Ile7 (R,S)) [SEQ ID No. 2 (M1)] | MD2/CD14 |  |  | Activator |  | 
(N′) Chg-2Leu-3Tyr-4Met-5Ser-6Leu-7Lys-8Trp-9Met (C′) ([Chg]LYMSLKWM) [SEQ ID No. 4 (M2)] | MD2/CD14 | ++ | ++ | Activator | +++ | +
EWGWRMII (Activator) [SEQ ID No. 2] | MD2/CD14 |  |  | Activator |  | 
ILYKSLKWM (Activator) [SEQ ID No. 5] | MD2/CD14 |  |  | Activator |  | 
ILYMSLKWM (Activator) [SEQ ID No. 4] | MD2/CD14 | +++ | + | Activator | +++ | 0
KKLMLII (at the C-terminus CH3 replace COOH) (KKLMLII-CH3) [SEQ ID No. 12] | MD2/CD14 |  |  | Inhibitor |  | 
MIPYGMRMM (Inhibitor) [SEQ ID No. 10] | MD2 |  |  | Inhibitor |  | 
PLWMMIKSMGSMMEMKK (Activator) [SEQ ID No. 3] | MD2 |  |  | Activator |  | 
RYETMSIMIKSGGKG (RYETMSIMIKSGGKY; Activator) [SEQ ID No. 1] | MD2/CD14 |  |  | Activator |  | 
RYETMSIMIKSGGKG-(methyl group replacing C-terminus) [SEQ ID No. 1 (M3)] | MD2/CD14 | + | + | Activator | 0 | 0
RYETMSIMIKSGGKY (not fully specified) [SEQ ID No. 1 (M1)] | MD2/CD14 | + | + | Activator | +++ | ++
RYETMSIMIKSGGKY-(methyl group replacing C-terminus) (RYETMSIMIKSGGKY-CH3) [SEQ ID No. 1 (M2)] | MD2/CD14 | + | + | Activator | 0 | 0
c[IGFMMMKKEF] (cyclic; Activator, cyclic) [SEQ ID No. 8] | MD2/CD14 |  |  | Activator |  | 
c[IWSRSW] (cyclic; Inhibitor, cyclic) [SEQ ID No. 15] | MD2 |  |  | Inhibitor |  | 
c[MLSFRM] (cyclic; Activator, cyclic) [SEQ ID No. 6] | MD2/CD14 | ++ | ++ | Activator | +++ | +
c[SIWDTMW] (cyclic; Inhibitor, cyclic) [SEQ ID No. 14] | MD2 |  |  | Inhibitor |  | 
c[SWEFLW] (cyclic; Inhibitor, cyclic) [SEQ ID No. 13] | MD2/CD14 |  |  | Inhibitor |  | 
c[geldkftm] (all D-amino acids) (cyclo(G[dE][dL][dD][dK][dF][dT][dM]); SMILES CSCC[C@H]1NC(=O)[C@@H]([C@H](C)O)NC(=O)[C@@H](Cc2ccccc2)NC(=O)[C@@H](CCCCN)NC(=O)[C@@H](CC(=O)O)NC(=O)[C@@H](CC(C)C)NC(=O)[C@@H](CCC(=O)O)NC(=O)CNC1=O) [SEQ ID No. 21] | MD2/CD14 |  |  | Activator |  | 
c[gfwseeeksl] (all D-amino acids) (cyclo(G[dF][dW][dS][dE][dE][dE][dK][dS][dL]); SMILES CC(C)C[C@H]1NC(=O)[C@@H](CO)NC(=O)[C@@H](CCCCN)NC(=O)[C@@H](CCC(=O)O)NC(=O)[C@@H](CCC(=O)O)NC(=O)[C@@H](CCC(=O)O)NC(=O)[C@@H](CO)NC(=O)[C@@H](Cc2c[nH]c3ccccc23)NC(=O)[C@@H](Cc2ccccc2)NC(=O)CNC1=O) [SEQ ID No. 22] | MD2/CD14 |  |  | Activator |  | 
c[gwlwrsl] (all D-amino acids) (cyclo(G[dW][dL][dW][dR][dS][dL]); SMILES CC(C)C[C@H]1NC(=O)[C@@H](CO)NC(=O)[C@@H](CCCNC(=N)N)NC(=O)[C@@H](Cc2c[nH]c3ccccc23)NC(=O)[C@@H](CC(C)C)NC(=O)[C@@H](Cc2c[nH]c3ccccc23)NC(=O)CNC1=O) [SEQ ID No. 19] | MD2/CD14 |  |  | Activator |  | 
c[gwwwral] (all D-amino acids) (cyclo(G[dW][dW][dW][dR][dA][dL]); SMILES CC(C)C[C@H]1NC(=O)[C@@H](C)NC(=O)[C@@H](CCCNC(=N)N)NC(=O)[C@@H](Cc2c[nH]c3ccccc23)NC(=O)[C@@H](Cc2c[nH]c3ccccc23)NC(=O)[C@@H](Cc2c[nH]c3ccccc23)NC(=O)CNC1=O) [SEQ ID No. 20] | MD2/CD14 |  |  | Inhibitor |  | 
rmmmw (all D-amino acids, CH3 group replaces C-term) ([dR][dM][dM][dM][dW]-CH3) [SEQ ID No. 16] | MD2/CD14 |  |  | Activator |  | 
tiymmmtmkg (all D-amino acids, both isoleucine chiral centers in D-enantiomer) [SEQ ID No. 18] | CD14 |  |  | Activator |  | 
wwikd (all D-amino acids, both isoleucine chiral centers in D-enantiomer) [SEQ ID No. 17] | MD2/CD14 |  |  | Activator |  | 

Reference: US20200247849A1, “PEPTIDE AGONISTS AND ANTAGONISTS OF TLR4 ACTIVATION” (PEPTICOM LTD, priority 2016, published 2020)
